Measurements as given in patent publication US20260317324A1, “BIFUNCTIONAL COMPOUNDS FOR DEGRADING BRAF VIA UBIQUITIN PROTEOSOME PATHWAY” (Nurix Therapeutics, Inc., priority 2023, published 2026).

Biological target: T1, BRAF V600E (Homo sapiens, UniProt P15056, V600E)
T1 construct: endogenous C-terminal HiBiT fusion tag on BRAF V600E allele; endogenous in cells; host or cells: A375 clone 1F10 (CRISPR-Cas9 knock-in of the HiBiT tag; parental A375 from ATCC)
Assay: BRAF HiBiT degradation assay, C-terminal HiBiT-tagged BRAF V600E A375 cells (clone 1F10), Nano-Glo HiBiT Lytic assay
Type: cell-based
Conditions: A375 (BRAF V600E); for DC50: DC50 at 50%: fitted conc. at Y=50; for Dmax: A-375, percentage protein degraded at maximal compound effect relative to DMSO
Outline: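 Luminescence read-out: Nano-Glo HiBiT lytic reagent with LgBiT, 10 min at room temperature. Signal normalised to DMSO-treated tagged cells, with wildtype A375 as background. Cells are endogenously tagged BRAF V600E A375 clone 1F10. Compounds were tested from 1 μM to 0.01 nM; Dmax is observed % degraded at maximal effect.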

T1 sequence (P15056 whole entry V600E, the tested form may be a part): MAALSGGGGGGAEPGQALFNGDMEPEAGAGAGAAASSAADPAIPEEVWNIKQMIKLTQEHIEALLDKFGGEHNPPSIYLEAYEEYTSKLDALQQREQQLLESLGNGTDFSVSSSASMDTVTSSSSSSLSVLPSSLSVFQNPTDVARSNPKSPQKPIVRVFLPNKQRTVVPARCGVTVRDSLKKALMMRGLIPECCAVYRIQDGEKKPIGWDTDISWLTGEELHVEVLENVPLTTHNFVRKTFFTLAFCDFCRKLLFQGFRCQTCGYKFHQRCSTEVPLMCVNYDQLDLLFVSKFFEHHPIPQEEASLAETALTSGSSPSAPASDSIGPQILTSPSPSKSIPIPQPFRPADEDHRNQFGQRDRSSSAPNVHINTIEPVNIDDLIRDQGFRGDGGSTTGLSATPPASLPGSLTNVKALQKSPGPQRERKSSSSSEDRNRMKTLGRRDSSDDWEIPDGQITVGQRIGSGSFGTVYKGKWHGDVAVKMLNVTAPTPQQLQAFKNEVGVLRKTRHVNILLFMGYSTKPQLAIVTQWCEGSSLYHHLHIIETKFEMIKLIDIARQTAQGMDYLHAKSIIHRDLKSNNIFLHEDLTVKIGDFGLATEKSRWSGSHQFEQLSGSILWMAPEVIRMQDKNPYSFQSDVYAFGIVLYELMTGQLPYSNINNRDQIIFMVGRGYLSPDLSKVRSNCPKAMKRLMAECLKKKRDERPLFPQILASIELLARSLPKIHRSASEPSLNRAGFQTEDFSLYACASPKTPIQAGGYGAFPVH

Compound | DC50 [nM] | Dmax [%]
CCCS(=O)(=O)Nc1cccc(-c2nc(C(C)(C)C)sc2-c2ccnc(Nc3ccc(N4CCN(CC5CCN(c6ccc([C@@H]7CCC(=O)NC7=O)cc6)CC5)CC4)c(F)c3)n2)c1F [Compound 88, N-[3-(2-tert-butyl-5-{2-[(4-{4-[(1-{4-[(3S)-2,6-dioxopiperidin-3-yl]phenyl}piperidin-4-yl)methyl]piperazin-1-yl}-3-fluorophenyl)amino]pyrimidin-4-yl}-1,3-thiazol-4-yl)-2-fluorophenyl]propane-1-sulfonamide] | 10 to 50 | 30 to 70
CCCS(=O)(=O)Nc1cccc(-c2nc(C(C)(C)C)sc2-c2ccnc(Nc3cccc(C4CCN(CC5(C)CCN(c6ccc(C7CCC(=O)NC7=O)cn6)CC5)CC4)c3)n2)c1F (racemic) [Compound 73, Rac-N-[3-(2-tert-butyl-5-{2-[(3-{1-[(1-{5-[(3R)-2,6-dioxopiperidin-3-yl]pyridin-2-yl}-4-methylpiperidin-4-yl)methyl]piperidin-4-yl}phenyl)amino]pyrimidin-4-yl}-1,3-thiazol-4-yl)-2-fluorophenyl]propane-1-sulfonamide] | 50 to 500 | 30 to 70
CCCS(=O)(=O)Nc1cccc(-c2nc(C3CCC4(CC3)CCN(C(=O)CN3CCC5(CC3)CN(c3ccc6c(c3)C(=O)N(C3CCC(=O)NC3=O)C6=O)C5)CC4)sc2-c2ccnc(N)n2)c1F (racemic) [Compound 237, Rac-N-{3-[5-(2-aminopyrimidin-4-yl)-2-{3-[2-(2-{2-[(3R)-2,6-dioxopiperidin-3-yl]-1,3-dioxo-2,3-dihydro-1H-isoindol-5-yl}-2,7-diazaspiro[3.5]nonan-7-yl)acetyl]-3-azaspiro[5.5]undecan-9-yl}-1,3-thiazol-4-yl]-2-fluorophenyl}propane-1-sulfonamide] | < 10 | > 70
CCCS(=O)(=O)Nc1cccc(-c2nc(C(C)(C)C)sc2-c2ccnc(Nc3ccc(C4CCN(C(=O)CCCC(=O)N[C@H](C(=O)N5C[C@H](O)C[C@H]5C(=O)N[C@@H](C)c5ccc(-c6scnc6C)cc5)C(C)(C)C)CC4)cc3)n2)c1F [Compound 86, (2S,4R)-1-[(2S)-2-[5-(4-{4-[(4-{2-tert-butyl-4-[2-fluoro-3-(propane-1-sulfonamido)phenyl]-1,3-thiazol-5-yl}pyrimidin-2-yl)amino]phenyl}piperidin-1-yl)-5-oxopentanamido]-3,3-dimethylbutanoyl]-4-hydroxy-N-[(1S)-1-[4-(4-methyl-1,3-thiazol-5-yl)phenyl]ethyl]pyrrolidine-2-carboxamide] | 50 to 500 | 30 to 70
CCCS(=O)(=O)Nc1cccc(-c2nc(C3CCN(CC4CCN(C(=O)CN5CCc6cc(C7CCC(=O)NC7=O)ccc6C5)CC4)CC3)sc2-c2ccnc(N)n2)c1F (racemic) [Compound 226, Rac-N-{3-[5-(2-aminopyrimidin-4-yl)-2-(1-{[1-(2-{6-[(3R)-2,6-dioxopiperidin-3-yl]-1,2,3,4-tetrahydroisoquinolin-2-yl}acetyl)piperidin-4-yl]methyl}piperidin-4-yl)-1,3-thiazol-4-yl]-2-fluorophenyl}propane-1-sulfonamide] | 50 to 500 | 30 to 70
CCCS(=O)(=O)Nc1cccc(-c2nc(C(C)(C)C)sc2-c2ccnc(Nc3ccc(C4CCN(C(=O)C5CCN(CC6CCN(c7ccc(C8CCC(=O)NC8=O)cn7)CC6)CC5)CC4)cc3)n2)c1F (racemic) [Compound 175, Rac-N-{3-[2-tert-butyl-5-(2-{[4-(1-{1-[(1-{5-[(3R)-2,6-dioxopiperidin-3-yl]pyridin-2-yl}piperidin-4-yl)methyl]piperidine-4-carbonyl}piperidin-4-yl)phenyl]amino}pyrimidin-4-yl)-1,3-thiazol-4-yl]-2-fluorophenyl}propane-1-sulfonamide] | 10 to 50 | 30 to 70
CCCS(=O)(=O)Nc1cccc(-c2nc(C(C)(C)C)sc2-c2ccnc(Nc3cccc(OC4CCN(C(=O)CN5CCN(c6cc(C7CCC(=O)NC7=O)ccn6)CC5)CC4)c3)n2)c1F (racemic) [Compound 93, Rac-N-{3-[2-tert-butyl-5-(2-{[3-({1-[2-(4-{4-[(3R)-2,6-dioxopiperidin-3-yl]pyridin-2-yl}piperazin-1-yl)acetyl]piperidin-4-yl}oxy)phenyl]amino}pyrimidin-4-yl)-1,3-thiazol-4-yl]-2-fluorophenyl}propane-1-sulfonamide] | 10 to 50 | 30 to 70
CCCS(=O)(=O)Nc1cccc(-c2nc(C(C)(C)C)sc2-c2ccnc(NC3CC4(C3)CN(C(=O)C3CCN(c5cccc6c5n(C)c(=O)n6C5CCC(=O)NC5=O)CC3)C4)n2)c1F (racemic) [Compound 160, Rac-N-{3-[2-tert-butyl-5-(2-{[2-(1-{1-[(3R)-2,6-dioxopiperidin-3-yl]-3-methyl-2-oxo-2,3-dihydro-1H-1,3-benzodiazol-4-yl}piperidine-4-carbonyl)-2-azaspiro[3.3]heptan-6-yl]amino}pyrimidin-4-yl)-1,3-thiazol-4-yl]-2-fluorophenyl}propane-1-sulfonamide] |  | 30 to 70
CCCS(=O)(=O)Nc1cccc(-c2nc(C(C)(C)C)sc2-c2ccnc(NC[C@H]3CCN(CC4CCN(c5ccc(C(=O)N[C@H]6CCC(=O)NC6=O)nc5)CC4)C3)n2)c1F [Compound 143, 5-(4-{[(3R)-3-{[(4-{2-tert-butyl-4-[2-fluoro-3-(propane-1-sulfonamido)phenyl]-1,3-thiazol-5-yl}pyrimidin-2-yl)amino]methyl}pyrrolidin-1-yl]methyl}piperidin-1-yl)-N-[(3S)-2,6-dioxopiperidin-3-yl]pyridine-2-carboxamide] | 50 to 500 | 30 to 70
CCCS(=O)(=O)Nc1cccc(-c2nc(C(C)(C)C)sc2-c2ccnc(NC3CCN(C4CCN(CC5CCN(c6ccc(C7CCC(=O)NC7=O)cn6)CC5)CC4)CC3)n2)c1F (racemic) [Compound 136, Rac-N-(3-{2-tert-butyl-5-[2-({1′-[(1-{5-[(3R)-2,6-dioxopiperidin-3-yl]pyridin-2-yl}piperidin-4-yl)methyl]-[1,4′-bipiperidin]-4-yl}amino)pyrimidin-4-yl]-1,3-thiazol-4-yl}-2-fluorophenyl)propane-1-sulfonamide] | 50 to 500 | 30 to 70
CCCS(=O)(=O)Nc1cccc(-c2nc(C(C)(C)C)sc2-c2ccnc(NC3CC4(CCN(C(=O)CN5CCN(c6ccc7c(c6)C(=O)N(C6CCC(=O)NC6=O)C7=O)CC5)CC4)C3)n2)c1F (racemic) [Compound 132, Rac-N-(3-{2-tert-butyl-5-[2-({7-[2-(4-{2-[(3R)-2,6-dioxopiperidin-3-yl]-1,3-dioxo-2,3-dihydro-1H-isoindol-5-yl}piperazin-1-yl)acetyl]-7-azaspiro[3.5]nonan-2-yl}amino)pyrimidin-4-yl]-1,3-thiazol-4-yl}-2-fluorophenyl)propane-1-sulfonamide] | 10 to 50 | 30 to 70
CCCS(=O)(=O)Nc1cccc(-c2nc(C)sc2-c2ccnc(Nc3ccc(N4CCN(CC5CCN(c6ccc([C@H]7CCC(=O)NC7=O)cc6)CC5)CC4)cn3)n2)c1F [Compound 60, N-[3-(5-{2-[(5-{4-[(1-{4-[(3R)-2,6-dioxopiperidin-3-yl]phenyl}piperidin-4-yl)methyl]piperazin-1-yl}pyridin-2-yl)amino]pyrimidin-4-yl}-2-methyl-1,3-thiazol-4-yl)-2-fluorophenyl]propane-1-sulfonamide] | 10 to 50 | > 70
CCN(C)S(=O)(=O)Nc1cccc(-c2nc(C)sc2-c2ccnc(Nc3ccc(N4CCN(C(=O)CC5CCN(c6ccc(C7CCC(=O)NC7=O)cn6)CC5)CC4)cn3)n2)c1F (racemic) [Compound 39, Rac-(3R)-3-{6-[4-(2-{4-[6-({4-[4-(3-{[ethyl(methyl)sulfamoyl]amino}-2-fluorophenyl)-2-methyl-1,3-thiazol-5-yl]pyrimidin-2-yl}amino)pyridin-3-yl]piperazin-1-yl}-2-oxoethyl)piperidin-1-yl]pyridin-3-yl}piperidine-2,6-dione] | < 10 | > 70
CCCS(=O)(=O)Nc1cccc(-c2nc(C(C)(C)C)sc2-c2ccnc(NC3CC4(C3)CN(C(=O)CN3CCN(CCCc5cccc6c5C(=O)N(C5CCC(=O)NC5=O)C6=O)CC3)C4)n2)c1F (racemic) [Compound 148, Rac-N-[3-(2-tert-butyl-5-{2-[(2-{2-[4-(3-{2-[(3R)-2,6-dioxopiperidin-3-yl]-1,3-dioxo-2,3-dihydro-1H-isoindol-4-yl}propyl)piperazin-1-yl]acetyl}-2-azaspiro[3.3]heptan-6-yl)amino]pyrimidin-4-yl}-1,3-thiazol-4-yl)-2-fluorophenyl]propane-1-sulfonamide] | > 500 | 30 to 70
CCCS(=O)(=O)Nc1cccc(-c2cn(-c3ccc(C(=O)N4CCN(CC5CCN(c6ccc([C@H]7CCC(=O)NC7=O)cc6)CC5)CC4)cc3)nc2-c2ccncc2)c1F [Compound 11, N-{3-[1-(4-{4-[(1-{4-[(3R)-2,6-dioxopiperidin-3-yl]phenyl}piperidin-4-yl)methyl]piperazine-1-carbonyl}phenyl)-3-(pyridin-4-yl)-1H-pyrazol-4-yl]-2-fluorophenyl}propane-1-sulfonamide] | 50 to 500 | 30 to 70
CCCS(=O)(=O)Nc1cccc(-c2cn(-c3ccc(C(=O)N4CCN(CC5CCN(c6ccc([C@@H]7CCC(=O)NC7=O)cc6)CC5)CC4)cc3)nc2-c2ccncc2)c1F [Compound 12, N-{3-[1-(4-{4-[(1-{4-[(3S)-2,6-dioxopiperidin-3-yl]phenyl}piperidin-4-yl)methyl]piperazine-1-carbonyl}phenyl)-3-(pyridin-4-yl)-1H-pyrazol-4-yl]-2-fluorophenyl}propane-1-sulfonamide] | 50 to 500 | 30 to 70
